# Laboratory results published in EP0465096A1, “Plasma cholesterol level lowering composition” (MERCK & CO. INC., priority 1990, dated 1992).
# Marks after values point to notes of the source that are not given here.
# System: dogs
# Test: Plasma cholesterol lowering in dogs, oral bolus (rapid release) vs 24 h gastric infusion (Example 1)
# Type: in vivo
# Details: ammonium salt, 10 mg/kg/day for 28 days, vs pre-dosing level
# Protocol: 7-[1,2,6,7,8,8a(R)-hexahydro-2(S),6(R)-dimethyl-8(S)-(2,2-dimethylbutyryloxy)-naphthalenyl-1(S)]-3(R),5(R)-dihydroxyheptanoic acid, an HMG-CoA reductase inhibitor which is the ring opened dihydroxy acid of simvastatin, was administered to dogs as the ammonium salt as either an oral bolus dose (rapid release) or as a continuous gastric infusion over 24 hours (simulated controlled release). In both cases, each dog received a dose of 10 mg/kg/day for 28 days of the above named HMG-CoA reductase inhibitor. Plasma cholesterol was determined throughout the entire study and drug-treatment levels compared to control cholesterol levels (pre-dosing) for each dog. Circulating plasma levels of the above named HMG-CoA reductase inhibitor were determined on Day 16 of each drug dosing period.
smiles,measurement,setting,value
"CCC(C)(C)C(=O)O[C@H]1C[C@@H](C)C=C2C=C[C@H](C)[C@H](CC[C@@H](O)C[C@@H](O)CC(=O)O)[C@H]21 [7-[1,2,6,7,8,8a(R)-hexahydro-2(S),6(R)-dimethyl-8(S)-(2,2-dimethylbutyryloxy)-naphthalenyl-1(S)]-3(R),5(R)-dihydroxyheptanoic acid]",Mean Maximum Reduction In Plasma Cholesterol,"continuous gastric infusion over 24 hours (simulated controlled release), mean ± SD, n = 4 dogs",60 ± 4.0^b percent
same,Mean Maximum Reduction In Plasma Cholesterol,"oral bolus dose (rapid release), n = 1 dog",31^a percent
